From the supplement of paper PMC10307832

How the values were obtained:
Assay in all cases: relative viability (nuclei count vs DMSO), 5 days (fraction); higher = more cells survive
[1] = compound: COc1cc2ncn(-c3cc(OCc4ccccc4C(F)(F)F)c(C(N)=O)s3)c2cc1OC + CS(=O)(=O)CCNCc1ccc(-c2ccc3ncnc(Nc4ccc(OCc5cccc(F)c5)c(Cl)c4)c3c2)o1 [Lapatinib] (partner 2 µM)
Method in brief: (§1)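 Lung cancer cell lines in 1536-well plates got either a single drug or a fixed anchor-drug dose together with five library-drug doses (not always all listed) in √10 steps, by pin tool, on the day after seeding. Nuclei were counted after 5 days, and relative viability is the treated-to-vehicle ratio of nuclei counts. Values are medians of duplicate plates.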

[2] = compound: COc1cc2ncn(-c3cc(OCc4ccccc4C(F)(F)F)c(C(N)=O)s3)c2cc1OC + CC(C)C[C@H](NC(=O)[C@H](Cc1ccccc1)NC(=O)c1cnccn1)B(O)O [Bortezomib] (partner 0.002 µM)
Method in brief: as §1

[3] = compound: COc1cc2ncn(-c3cc(OCc4ccccc4C(F)(F)F)c(C(N)=O)s3)c2cc1OC + NC(=O)Nc1cc(-c2cccc(F)c2)sc1C(=O)N[C@H]1CCCNC1 [AZD7762] (partner 0.2 µM)
Method in brief: as §1

[4] = compound: COc1cc2ncn(-c3cc(OCc4ccccc4C(F)(F)F)c(C(N)=O)s3)c2cc1OC + Nc1ncn([C@H]2C[C@H](O)[C@@H](CO)O2)c(=O)n1 [Decitabine] (partner 2 µM)
Method in brief: as §1

| Cell Line | relative viability ([1]; first compound 0.05 µM) | relative viability ([1]; first compound 0.1581 µM) | relative viability ([1]; first compound 0.5 µM) | relative viability ([1]; first compound 1.581 µM) | relative viability ([1]; first compound 5 µM) | relative viability ([2]; first compound 0.05 µM) | relative viability ([2]; first compound 0.1581 µM) | relative viability ([2]; first compound 0.5 µM) | relative viability ([2]; first compound 1.581 µM) | relative viability ([2]; first compound 5 µM) | relative viability ([3]; first compound 0.05 µM) | relative viability ([3]; first compound 0.1581 µM) | relative viability ([3]; first compound 0.5 µM) | relative viability ([3]; first compound 1.581 µM) | relative viability ([3]; first compound 5 µM) | relative viability ([4]; first compound 0.05 µM) | relative viability ([4]; first compound 0.1581 µM) | relative viability ([4]; first compound 0.5 µM) | relative viability ([4]; first compound 1.581 µM) | relative viability ([4]; first compound 5 µM) |
| --- | --- | --- | --- | --- | --- | --- | --- | --- | --- | --- | --- | --- | --- | --- | --- | --- | --- | --- | --- | --- |
| HCC-78 | 0.75 | 0.429 | 0.542 | 0.566 | 0.804 | 0.472 | 0.496 | 0.39 | 0.238 | 0.227 | 0.795 | 0.653 | 0.493 | 0.565 | 0.422 | 0.688 | 0.652 | 0.671 | 0.473 | 0.446 |
| HCC-366 | 1.11 | 1.02 | 0.359 | 0.0141 | 0.0131 | 1.12 | 1.04 | 0.646 | 0.018 | 0.0097 | 0.51 | 0.431 | 0.385 | 0.0175 | 0.0105 | 0.255 | 0.372 | 0.326 | 0.0359 | 0.0203 |
| HCC-827 | 0.165 | 0.23 | 0.207 | 0.13 | 0.206 | 1.06 | 0.98 | 1.02 | 0.776 | 0.508 | 0.229 | 0.246 | 0.185 | 0.201 | 0.161 | 0.344 | 0.346 | 0.328 | 0.234 | 0.28 |
| HOP-62 | 1.01 | 1.08 | 0.829 | 0.233 | 0.121 | 0.977 | 1.2 | 0.507 | 0.178 | 0.124 | 0.523 | 0.714 | 0.316 | 0.118 | 0.0755 | 0.227 | 0.266 | 0.237 | 0.186 | 0.141 |
| LC-2-ad | 0.811 | 0.592 | 0.511 | 0.119 | 0.0933 | 0.866 | 0.516 | 0.399 | 0.108 | 0.106 | 0.769 | 0.896 | 0.576 | 0.14 | 0.129 | 0.824 | 0.761 | 0.63 | 0.203 | 0.2 |
| LCLC-97TM1 | 0.802 | 0.893 | 0.343 | 0.175 | 0.161 | 0.77 | 0.71 | 0.354 | 0.0568 | 0.0894 | 0.355 | 0.293 | 0.161 | 0.0896 | 0.0604 | 0.246 | 0.238 | 0.196 | 0.139 | 0.114 |
| LOU-NH91 | 0.768 | 0.793 | 0.676 | 0.444 | 0.499 | 0.434 | 0.368 | 0.405 | 0.348 | 0.346 | 0.774 | 0.818 | 0.638 | 0.41 | 0.277 | 0.841 | 0.84 | 0.761 | 0.513 | 0.344 |
| LU99A | 1 | 0.948 | 0.577 | 0.226 | 0.183 | 1.14 | 1.08 | 0.898 | 0.206 | 0.201 | 0.306 | 0.385 | 0.226 | 0.132 | 0.0907 | 0.767 | 0.825 | 0.604 | 0.194 | 0.191 |
